According to patent US9789082B2, “Somatostatin receptor subtype 4 (SSTR4) agonists” (Centrexion Therapeutics Corporation, priority 2013, dated 2017):
pEC50: −log10 of the molar value.

Biological target: human Somatostatin 4 receptor (SSTR4) (Homo sapiens (Human), UniProt P31391)
Assay: cAMP assay with human somatostatin 4 receptor (hSSTR4 expressing H4 cells)
Assay type: cell-based
Settings: cAMP assay, read-out: SSTR4 agonism EC50
Description: Camp Assay Method Description for cAMP Assay with Human Somatostatin 4 Receptor
The activation of the SSTR4 receptor (Gi coupled) causes an inhibition of intracellular cAMP after stimulation with Forskolin, which can be quantifiable by use of a suitable assay Kit and an adequate plate reader. This technique is used to characterize pharmacological effects of the SSTR4 receptor agonists by use of hSSTR4 expressing H4 cells.
Compounds are dissolved and diluted in DMSO. The final test solution contains 1% DMSO. […] Cells are centrifuged and suspended in assay buffer (incl. 1:100 diluted Alexa antibody).
For the assay 5 μl of a cell suspension (approximately 5000 cells/well)—incl. Alexa antibody (diluted 1:100) are added into a 384 well MTP microtitre plate excepting one row or column (depending on the plate layout), which is reserved for the standard curve. Then 2 μl of compound sample is added as concentration response curve (e.g. 1e-5 M to 6e-10 M), usually in triplicates. Each assay contains incubations with vehicle controls instead of compound as controls for non-inhibited cAMP generation (100% CTL; ‘high values’) and incubations with 1 μM Somatosatin as controls for full inhibition and background (0% CTL; […]). […] Then the plates are shaken briefly and incubated for 60 min at room temperature. After 60 min 10 μl of the detection mix is added into all wells followed by an additional incubation period of 1 h. The plates are read in a suitable plate reader.
From this ratio, cAMP concentrations are calculated from standard curve and the EC50 is estimated by least square curve fit program.
The EC50 values were obtained with the aid of the above described cAMP ASSAY.

human Somatostatin 4 receptor (SSTR4), sequence (P31391 whole entry): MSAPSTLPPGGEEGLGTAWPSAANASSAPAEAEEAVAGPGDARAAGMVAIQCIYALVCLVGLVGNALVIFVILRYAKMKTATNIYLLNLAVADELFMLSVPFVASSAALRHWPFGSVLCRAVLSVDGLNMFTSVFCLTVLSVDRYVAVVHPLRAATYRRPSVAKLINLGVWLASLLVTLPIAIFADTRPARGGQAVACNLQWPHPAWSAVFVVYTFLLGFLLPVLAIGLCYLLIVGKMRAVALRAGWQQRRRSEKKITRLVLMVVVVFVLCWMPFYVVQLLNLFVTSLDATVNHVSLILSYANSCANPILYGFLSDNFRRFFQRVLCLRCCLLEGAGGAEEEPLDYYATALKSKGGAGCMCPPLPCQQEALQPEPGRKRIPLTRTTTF

| Compound | pEC50 |
| --- | --- |
| CC(NC(=O)[C@H]1[C@@H]2CNC[C@@H]21)c1nn(C)c2ccccc12 (single isomer, unassigned) [Example 112] | 6.93 |
| CC(NC(=O)[C@H]1[C@@H]2CNC[C@@H]21)c1nn(C)c2c(Cl)cccc12 (single isomer, unassigned) [Example 115] | 7.67 |
| Cc1cccc2c(C(C)NC(=O)[C@H]3[C@@H]4CNC[C@@H]43)nn(C)c12 (single isomer, unassigned) [Example 118] | 7.41 |
| Cc1nc(C(C)NC(=O)[C@H]2[C@@H]3CNC[C@@H]32)c2ccccc2n1 (single isomer, unassigned) [Example 163] | 6.47 |
| Cc1nc(C(C)NC(=O)[C@H]2[C@@H]3CNC[C@@H]32)c2ccccc2n1 (single isomer, unassigned) [Example 164] | 5.18 |
| Cc1nc(C(C)NC(=O)[C@H]2[C@@H]3CNC[C@@H]32)c2cccc(C)c2n1 (single isomer, unassigned) [Example 165] | 7.05 |
| Cc1nc(C(C)NC(=O)[C@H]2[C@@H]3CNC[C@@H]32)c2cccc(C)c2n1 (single isomer, unassigned) [Example 166] | 5.85 |
| CC(C)(NC(=O)[C@H]1[C@@H]2CNC[C@@H]21)C1COc2ccccc21 (single isomer, unassigned) [Example 174] | 7.00 |
| CC(C)(NC(=O)[C@H]1[C@@H]2CNC[C@@H]21)C1COc2ccccc21 (single isomer, unassigned) [Example 175] | 6.00 |
| CC(C)(NC(=O)[C@H]1[C@@H]2CNC[C@@H]21)C1CCOc2ccccc21 (single isomer, unassigned) [Example 179] | 7.99 |
| CC(C)(NC(=O)[C@H]1[C@@H]2CNC[C@@H]21)C1CCOc2ccccc21 (single isomer, unassigned) [Example 180] | 6.40 |
| Cc1cc(I)ccc1OCC1(NC(=O)[C@H]2[C@@H]3CNC[C@@H]32)CC1 [Example 1] | 6.62 |
| CC(C)(NC(=O)[C@H]1[C@@H]2CNC[C@@H]21)c1ccccc1 [Example 3] | 6.75 |
| CC(C)(CCc1ccccc1)NC(=O)[C@H]1[C@@H]2CNC[C@@H]21 [Example 4] | 6.50 |
| CC(C)(Cc1cccc2ccccc12)NC(=O)[C@H]1[C@@H]2CNC[C@@H]21 [Example 5] | 7.58 |
| Cc1ccccc1CC(C)(C)NC(=O)[C@H]1[C@@H]2CNC[C@@H]21 [Example 6] | 7.22 |
| CC(C)(NC(=O)[C@H]1[C@@H]2CNC[C@@H]21)C1CCCCC1 [Example 7] | 6.36 |
| O=C(NC1(c2ccccc2)CCCCC1)[C@H]1[C@@H]2CNC[C@@H]21 [Example 9] | 6.27 |
| Cc1cc(Br)ccc1OCC(C)(C)NC(=O)[C@H]1[C@@H]2CNC[C@@H]21 [Example 14] | 8.14 |
| Cc1cc(C(F)(F)F)ccc1OCC(C)(C)NC(=O)[C@H]1[C@@H]2CNC[C@@H]21 [Example 19] | 6.85 |
| CC(C)(NC(=O)[C@H]1[C@@H]2CNC[C@@H]21)c1cc2ccccc2cn1 [Example 26] | 7.33 |
| Cc1csc(C(C)(C)NC(=O)[C@H]2[C@@H]3CNC[C@@H]32)n1 [Example 27] | 6.55 |

| Compound | pEC50 |
| --- | --- |
| CC(C)(CCc1ncccc1C(F)(F)F)NC(=O)[C@H]1[C@@H]2CNC[C@@H]21 [Example 29] | 7.22 |
| Cc1cccnc1CCC(C)(C)NC(=O)[C@H]1[C@@H]2CNC[C@@H]21 [Example 30] | 6.69 |
| CC(C)(NC(=O)[C@H]1[C@@H]2CNC[C@@H]21)c1ccc2ccccc2n1 [Example 34] | 7.39 |
| Cn1nc(C(C)(C)NC(=O)[C@H]2[C@@H]3CNC[C@@H]32)c2ncccc21 [Example 35] | 6.43 |
| CC(C)(COc1ccncc1C(F)(F)F)NC(=O)[C@H]1[C@@H]2CNC[C@@H]21 [Example 36] | 7.66 |
| Cc1nccnc1OCC(C)(C)NC(=O)[C@H]1[C@@H]2CNC[C@@H]21 [Example 37] | 6.79 |
| CC(C)(COc1ccccc1F)NC(=O)[C@H]1[C@@H]2CNC[C@@H]21 [Example 41] | 6.71 |
| CC(C)(NC(=O)[C@H]1[C@@H]2CNC[C@@H]21)c1cnc2cccnn12 [Example 46] | 6.62 |
| CC(C)(NC(=O)[C@H]1[C@@H]2CNC[C@@H]21)c1nn(Cc2ccccc2)c2ccccc12 [Example 50] | 8.08 |
| CC(C)(COc1ccnc2ccccc12)NC(=O)[C@H]1[C@@H]2CNC[C@@H]21 [Example 54] | 7.18 |
| CC(C)(COc1cncc2ccccc12)NC(=O)[C@H]1[C@@H]2CNC[C@@H]21 [Example 55] | 7.51 |
| CC(C)(COc1cccn2ccnc12)NC(=O)[C@H]1[C@@H]2CNC[C@@H]21 [Example 61] | 5.96 |
| CC(C)(COc1noc2ccccc12)NC(=O)[C@H]1[C@@H]2CNC[C@@H]21 [Example 62] | 6.69 |
| Cc1cncnc1OCC(C)(C)NC(=O)[C@H]1[C@@H]2CNC[C@@H]21 [Example 66] | 6.85 |
| CC(C)(NC(=O)[C@H]1[C@@H]2CNC[C@@H]21)c1ncc2ccncn12 [Example 69] | 6.13 |
| Cc1ccccc1OCC(C)(C)NC(=O)[C@H]1[C@@H]2CN(C(C)C)C[C@@H]21 [Example 72] | 6.44 |
| Cn1nc(C(C)(C)NC(=O)[C@H]2[C@@H]3CNC[C@@H]32)c2cc(F)ccc21 [Example 73] | 7.92 |
| CC(C)(NC(=O)[C@H]1[C@@H]2CNC[C@@H]21)c1c(Cl)nc2sccn12 [Example 81] | 6.84 |
| CC(C)(NC(=O)[C@H]1[C@@H]2CNC[C@@H]21)c1cn2ccccc2n1 [Example 84] | 6.08 |
| CC(C)(NC(=O)[C@H]1[C@@H]2CNC[C@@H]21)c1ccn2ccnc2c1 [Example 85] | 6.84 |
| CC(C)(NC(=O)[C@H]1[C@@H]2CNC[C@@H]21)c1ccc2nccn2c1 [Example 86] | 7.03 |
| CC(C)(NC(=O)[C@H]1[C@@H]2CNC[C@@H]21)c1nn(CC(F)(F)F)c2ccccc12 [Example 96] | 8.04 |

| Compound | pEC50 |
| --- | --- |
| CC(C)(NC(=O)[C@H]1[C@@H]2CNC[C@@H]21)c1nn(CC2CC2)c2ccccc12 [Example 97] | 7.91 |
| CC(C)n1nc(C(C)(C)NC(=O)[C@H]2[C@@H]3CNC[C@@H]32)c2ccccc21 [Example 98] | 7.70 |
| CC(C)(NC(=O)[C@H]1[C@@H]2CNC[C@@H]21)c1nn(C2CCOCC2)c2ccccc12 [Example 99] | 6.99 |
| Cc1cccc2c(C(C)NC(=O)[C@H]3[C@@H]4CNC[C@@H]43)nn(C)c12 (stereo partly drawn) [Example 117] | 8.21 |
| CC(C)(NC(=O)[C@H]1[C@@H]2CNC[C@@H]21)c1ncc2ccc(C(F)(F)F)cn12 [Example 121] | 7.21 |
| CC(C)(NC(=O)[C@H]1[C@@H]2CNC[C@@H]21)c1ncc2cc(C(F)(F)F)ccn12 [Example 122] | 5.87 |
| CC(C)(NC(=O)[C@H]1[C@@H]2CNC[C@@H]21)c1nc(Br)c2ccccn12 [Example 123] | 8.82 |
| CC(C)(NC(=O)[C@H]1[C@@H]2CNC[C@@H]21)c1ncc2c(C(F)(F)F)cccn12 [Example 124] | 7.81 |
| CC(C)(NC(=O)[C@H]1[C@@H]2CNC[C@@H]21)c1nc(C2=CCOCC2)c2ccccn12 [Example 125] | 7.01 |
| CC(C)(NC(=O)[C@H]1[C@@H]2CNC[C@@H]21)c1nc(C(F)(F)F)c2c(F)cccn12 [Example 127] | 7.50 |
| CC(C)(NC(=O)[C@H]1[C@@H]2CNC[C@@H]21)c1ncc2cnccn12 [Example 131] | 6.32 |
| CC(C)(NC(=O)[C@H]1[C@@H]2CNC[C@@H]21)c1nc(C#N)c2ccccn12 [Example 132] | 7.14 |
| CC(C)(NC(=O)[C@H]1[C@@H]2CNC[C@@H]21)c1ncc2cccc(F)n12 [Example 135] | 8.12 |
| CC(C)(NC(=O)[C@H]1[C@@H]2CNC[C@@H]21)c1ncc2ccc(F)cn12 [Example 136] | 8.19 |
| Cc1cc2c(C)nccc2c(C(C)(C)NC(=O)[C@H]2[C@@H]3CNC[C@@H]32)n1 [Example 144] | 7.32 |
| Cc1nc2ccccn2c1C(C)(C)NC(=O)[C@H]1[C@@H]2CNC[C@@H]21 [Example 147] | 7.88 |
| CC(C)(NC(=O)[C@H]1[C@@H]2CNC[C@@H]21)c1ncc2c(OC(F)(F)F)cccn12 [Example 152] | 7.58 |
| CC(C)(NC(=O)[C@H]1[C@@H]2CNC[C@@H]21)c1ncnc2c(F)cccc12 [Example 154] | 8.12 |
| COc1ccn2c(C(C)(C)NC(=O)[C@H]3[C@@H]4CNC[C@@H]43)nc(C)c2c1 [Example 155] | 7.02 |
| Cc1nc(C(C)(C)NC(=O)[C@H]2[C@@H]3CNC[C@@H]32)c2cccc(F)c2n1 [Example 157] | 7.43 |
| Cc1cccn2c([C@@H](C)NC(=O)[C@H]3[C@@H]4CNC[C@@H]43)ncc12 [Example 160] | 7.37 |
| Cc1nc(C(C)NC(=O)[C@H]2[C@@H]3CNC[C@@H]32)c2ccccc2n1 (stereo partly drawn) [Example 161] | 6.12 |
